Test results published in ChEMBL document CHEMBL4393686, “InCl3 mediated heteroarylation of indoles and their derivatization via CH activation strategy: Discovery of 2-(1H-indol-3-yl)-quinoxaline derivatives as a new class of PDE4B selective inhibitors for arthritis and/or multiple sclerosis” (Eur J Med Chem, 2019).
Active and inactive are the calls of the source. No cut-off for these calls is given here.

What was measured:
[1] = Hepatotoxicity in zebrafish embryos assessed as yolk sac retention at 1 to 100 uM incubated for 7 dpf; assay type: toxicity, Danio rerio; details: in vivo
[2] = Cmax in BALB/c mouse at 10 mg/kg, iv measured for 24 hrs post dose by LC-MS/MS analysis; assay type: ADME, organism-based; set-up: dose 10 mg/kg, route intravenous; details: in vivo
[3] = Metabolic stability in rat liver microsomes assessed as compound remaining at 5 uM incubated for 30 mins in presence of air measured after 60 mins by LC-MS/MS analysis; assay type: ADME, Microsome; details: read-out: Stability
[4] = Initial plasma concentration in BALB/c mouse at 10 mg/kg, iv measured for 24 hrs post dose by LC-MS/MS analysis; assay type: ADME, organism-based
[5] = Toxicity in zebrafish embryos assessed as teratogenicity score at 1 to 100 uM incubated for 5 dpf; set-up: species or system Danio rerio; details: in vivo
[6] = test system: Danio rerio; assay: Anti-sclerotic activity in MOG/CFA-induced zebra fish EAE model assessed as prevention of disease progression at 3 to 30 mg/kg, ip measured for 7 days; assay type: functional, organism-based
[7] = molecular target: Cone cGMP-specific 3',5'-cyclic phosphodiesterase subunit alpha' (Homo sapiens) (UniProt P51160); assay: Inhibition of recombinant N-terminal GST-tagged full length human PDE6C expressed in Sf9 cells using FAM-cGMP as substrate at 10 uM incubated for 60 mins by fluorescence plate reader analysis
[8] = Toxicity in zebrafish embryo assessed as effect in swim bladder formation at 1 to 100 uM; set-up: species or system Danio rerio; details: in vivo
[9] = Toxicity in zebrafish embryo; set-up: species or system Danio rerio; details: in vivo
[10] = test system: Rattus norvegicus; assay: Antiinflammatory activity in complete Freund's adjuvant-induced Wistar rat arthritis model assessed as reduction in IL1beta expression in serum at 30 mg/kg, ip administered from 11th day to 20th day by ELISA; assay type: functional, organism-based
[11] = test system: Rattus norvegicus; assay: Antiinflammatory activity in complete Freund's adjuvant-induced Wistar rat arthritis model assessed as reduction in TNFalpha expression in serum at 30 mg/kg, ip administered from 11th day to 20th day by ELISA; assay type: functional, organism-based
[12] = AUC (0 to extrap) in BALB/c mouse at 10 mg/kg, iv measured for 24 hrs post dose by LC-MS/MS analysis; assay type: ADME, organism-based; details: in vivo
[13] = molecular target: PDE4C (Homo sapiens, UniProt Q08493); assay: Inhibition of PDE4C (unknown origin) at 100 uM using cAMP as substrate preincubated with enzyme for 15 mins followed by substrate addition and incubated for 1 hr by PDELight HTS cAMP phosphodiesterase Kit based luminometry relative to control; details: probe cAMP
[14] = molecular target: High affinity 3',5'-cyclic-AMP phosphodiesterase 7A (Homo sapiens) (UniProt Q13946); assay: Inhibition of recombinant N-terminal GST tagged human PDE7A1 (122-end aa) expressed in Sf9 cells using FAM-cAMP as substrate at 10 uM incubated for 60 mins by fluorescence plate reader analysis
[15] = Toxicity in zebrafish embryo assessed as effect in tail formation at 1 to 100 uM; set-up: species or system Danio rerio; details: in vivo
[16] = molecular target: 3',5'-cyclic-AMP phosphodiesterase 4D (Homo sapiens, UniProt Q08499); assay: Inhibition of PDE4D2 (unknown origin) using cAMP as substrate preincubated with enzyme for 15 mins followed by substrate addition and incubated for 1 hr by PDELight HTS cAMP phosphodiesterase Kit based luminometry
[17] = Half life in rat liver microsomes at 5 uM by LC-MS/MS analysis; assay type: ADME, Microsome
[18] = molecular target: Dual specificity calcium/calmodulin-dependent 3',5'-cyclic nucleotide phosphodiesterase 1B (Homo sapiens) (UniProt Q01064); assay: Inhibition of recombinant N-terminal GST tagged full length human PDE1B expressed in Sf9 cells using FAM-cAMP as substrate at 10 uM incubated for 60 mins by fluorescence plate reader analysis
[19] = MRTlast in BALB/c mouse at 10 mg/kg, iv measured for 24 hrs post dose by LC-MS/MS analysis; assay type: ADME, organism-based; details: in vivo
[20] = test system: RAW264.7; assay: Antiinflammatory activity in mouse RAW264.7 cells assessed as inhibition of LPS-induced iNOS expression preincubated for 30 mins followed by LPS stimulation and incubated for 10 hrs by immunoblotting analysis; assay type: functional, cell-based
[21] = Toxicity in zebrafish embryo assessed as effect in fin formation at 1 to 100 uM; set-up: species or system Danio rerio; details: in vivo
[22] = molecular target: Dual specificity calcium/calmodulin-dependent 3',5'-cyclic nucleotide phosphodiesterase 1A (Homo sapiens) (UniProt P54750); assay: Inhibition of recombinant N-terminal GST-tagged full-length human PDE1A1 expressed in Sf9 cells using FAM-cAMP as substrate at 10 uM incubated for 60 mins by fluorescence plate reader analysis
[23] = test system: Rattus norvegicus; assay: Antiinflammatory activity in complete Freund's adjuvant-induced Wistar rat arthritis model assessed as reduction in IL6 expression in serum at 30 mg/kg, ip administered from 11th day to 20th day by ELISA; assay type: functional, organism-based
[24] = Toxicity in zebrafish embryo assessed as effect in intestine formation at 1 to 100 uM; assay type: tissue-based, Danio rerio; details: in vivo
[25] = molecular target: T1, 3',5'-cyclic-AMP phosphodiesterase 4B (Homo sapiens, UniProt Q07343); assay: Inhibition of human recombinant His-tagged PDE4B expressed in Sf9 cells using cAMP as substrate at 10 uM preincubated with enzyme for 15 mins followed by substrate addition and incubated for 1 hr by PDELight HTS cAMP phosphodiesterase Kit based luminometry relative to control
[26] = molecular target: T1, 3',5'-cyclic-AMP phosphodiesterase 4B; assay: Inhibition of recombinant His-tagged human PDE4B expressed in Sf9 cells using cAMP as substrate preincubated with enzyme for 15 mins followed by substrate addition and incubated for 1 hr by PDELight HTS cAMP phosphodiesterase Kit based luminometry
[27] = Volume of distribution at steady state in BALB/c mouse at 10 mg/kg, iv measured for 24 hrs post dose by LC-MS/MS analysis; assay type: ADME, organism-based; details: in vivo, read-out: Vdss
[28] = Toxicity in zebrafish embryo assessed as effect in brain formation at 1 to 100 uM; assay type: tissue-based, Danio rerio; details: in vivo
[29] = test system: Rattus norvegicus; assay: Antiinflammatory activity in complete Freund's adjuvant-induced Wistar rat arthritis model assessed as reduction in iNOS mRNA expression at 30 mg/kg, ip administered from 11th day to 20th day by qPCR analysis; assay type: functional, organism-based
[30] = Toxicity in zebrafish embryo assessed as effect in notochord formation at 1 to 100 uM; set-up: species or system Danio rerio; details: in vivo
[31] = Toxicity in zebrafish embryo assessed as effect in upper jaw formation at 1 to 100 uM; set-up: species or system Danio rerio; details: in vivo
[32] = Hepatotoxicity in zebrafish embryos assessed as liver degeneration at 1 to 100 uM incubated for 7 dpf; assay type: toxicity, Danio rerio; details: in vivo
[33] = test system: Rattus norvegicus; assay: Analgesic activity in complete Freund's adjuvant-induced Wistar rat arthritis model assessed as increase in reaction time at 30 mg/kg, ip administered from 11th day 20th day with last dose administered 30 mins prior to test by hot-plate test; assay type: functional, organism-based
[34] = Clearance in BALB/c mouse at 10 mg/kg, iv measured for 24 hrs post dose by LC-MS/MS analysis; assay type: ADME, organism-based; details: in vivo
[35] = molecular target: High affinity cGMP-specific 3',5'-cyclic phosphodiesterase 9A (Homo sapiens) (UniProt O76083); assay: Inhibition of recombinant N-terminal GST-tagged full length human PDE9A2 expressed in Sf9 cells using F AM-cGMP as substrate at 10 uM incubated for 60 mins by fluorescence plate reader analysis
High affinity cGMP-specific 3',5'-cyclic phosphodiesterase 9A (Homo sapiens), sequence (O76083 whole entry): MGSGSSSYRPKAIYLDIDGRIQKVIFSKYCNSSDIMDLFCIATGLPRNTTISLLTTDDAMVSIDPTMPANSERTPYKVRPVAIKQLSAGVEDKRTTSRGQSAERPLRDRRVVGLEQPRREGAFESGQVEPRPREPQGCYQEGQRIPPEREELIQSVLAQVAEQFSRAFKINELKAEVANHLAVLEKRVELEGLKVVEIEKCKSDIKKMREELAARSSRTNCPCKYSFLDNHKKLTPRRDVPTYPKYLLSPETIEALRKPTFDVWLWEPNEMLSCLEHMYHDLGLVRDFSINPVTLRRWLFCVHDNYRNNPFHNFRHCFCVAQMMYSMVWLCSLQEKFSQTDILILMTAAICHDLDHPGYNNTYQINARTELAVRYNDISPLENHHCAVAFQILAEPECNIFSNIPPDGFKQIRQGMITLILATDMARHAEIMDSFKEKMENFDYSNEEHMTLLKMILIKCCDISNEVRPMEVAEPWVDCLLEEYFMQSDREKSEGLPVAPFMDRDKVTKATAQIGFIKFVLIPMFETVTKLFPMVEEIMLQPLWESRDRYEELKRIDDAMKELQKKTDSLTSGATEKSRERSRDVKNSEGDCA

T1 sequence (Q07343 whole entry): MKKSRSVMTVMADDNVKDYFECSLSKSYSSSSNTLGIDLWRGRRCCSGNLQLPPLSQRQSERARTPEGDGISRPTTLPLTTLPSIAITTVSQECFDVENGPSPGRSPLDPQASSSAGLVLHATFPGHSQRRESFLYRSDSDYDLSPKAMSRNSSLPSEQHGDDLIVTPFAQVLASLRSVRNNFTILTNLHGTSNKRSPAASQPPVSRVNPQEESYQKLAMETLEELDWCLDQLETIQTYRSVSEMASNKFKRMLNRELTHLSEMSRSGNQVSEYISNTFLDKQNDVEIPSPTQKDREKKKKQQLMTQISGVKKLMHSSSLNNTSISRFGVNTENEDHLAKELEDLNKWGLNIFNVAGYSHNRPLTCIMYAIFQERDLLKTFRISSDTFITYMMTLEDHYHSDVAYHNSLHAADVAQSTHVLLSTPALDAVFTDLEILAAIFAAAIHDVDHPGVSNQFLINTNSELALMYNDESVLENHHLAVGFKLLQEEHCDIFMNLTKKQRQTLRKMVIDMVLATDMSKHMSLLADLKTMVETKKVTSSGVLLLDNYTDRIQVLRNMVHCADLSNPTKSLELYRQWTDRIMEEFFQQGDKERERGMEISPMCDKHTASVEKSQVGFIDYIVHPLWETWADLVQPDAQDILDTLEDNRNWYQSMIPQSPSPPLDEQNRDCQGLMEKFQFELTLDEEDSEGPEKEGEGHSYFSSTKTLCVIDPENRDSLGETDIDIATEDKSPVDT
Dual specificity calcium/calmodulin-dependent 3',5'-cyclic nucleotide phosphodiesterase 1B (Homo sapiens), sequence (Q01064 whole entry): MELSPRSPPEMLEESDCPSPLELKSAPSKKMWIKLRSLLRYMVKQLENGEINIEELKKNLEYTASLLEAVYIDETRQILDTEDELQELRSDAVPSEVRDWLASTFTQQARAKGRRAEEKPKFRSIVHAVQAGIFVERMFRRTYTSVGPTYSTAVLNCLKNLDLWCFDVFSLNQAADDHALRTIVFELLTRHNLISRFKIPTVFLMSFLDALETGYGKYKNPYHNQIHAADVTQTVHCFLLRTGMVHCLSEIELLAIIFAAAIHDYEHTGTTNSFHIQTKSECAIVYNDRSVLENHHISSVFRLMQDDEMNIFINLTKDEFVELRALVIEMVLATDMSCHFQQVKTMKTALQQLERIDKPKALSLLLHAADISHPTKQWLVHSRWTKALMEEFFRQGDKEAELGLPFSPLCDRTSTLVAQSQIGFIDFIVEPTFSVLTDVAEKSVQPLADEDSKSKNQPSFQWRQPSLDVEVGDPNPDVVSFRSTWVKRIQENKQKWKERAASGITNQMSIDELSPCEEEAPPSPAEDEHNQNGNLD
High affinity 3',5'-cyclic-AMP phosphodiesterase 7A (Homo sapiens), sequence (Q13946 whole entry): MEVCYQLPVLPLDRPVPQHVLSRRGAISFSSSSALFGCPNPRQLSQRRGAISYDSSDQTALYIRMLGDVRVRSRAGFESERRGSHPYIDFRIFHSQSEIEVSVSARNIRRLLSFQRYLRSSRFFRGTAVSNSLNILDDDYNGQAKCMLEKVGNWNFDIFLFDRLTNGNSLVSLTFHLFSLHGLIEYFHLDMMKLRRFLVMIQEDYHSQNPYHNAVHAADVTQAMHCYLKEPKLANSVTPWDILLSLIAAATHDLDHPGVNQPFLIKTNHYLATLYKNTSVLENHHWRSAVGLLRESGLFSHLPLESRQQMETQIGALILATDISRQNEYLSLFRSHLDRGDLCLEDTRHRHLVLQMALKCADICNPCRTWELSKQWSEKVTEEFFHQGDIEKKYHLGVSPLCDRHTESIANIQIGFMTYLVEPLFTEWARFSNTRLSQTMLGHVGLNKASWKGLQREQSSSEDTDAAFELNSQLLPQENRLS
Cone cGMP-specific 3',5'-cyclic phosphodiesterase subunit alpha' (Homo sapiens), sequence (P51160 whole entry): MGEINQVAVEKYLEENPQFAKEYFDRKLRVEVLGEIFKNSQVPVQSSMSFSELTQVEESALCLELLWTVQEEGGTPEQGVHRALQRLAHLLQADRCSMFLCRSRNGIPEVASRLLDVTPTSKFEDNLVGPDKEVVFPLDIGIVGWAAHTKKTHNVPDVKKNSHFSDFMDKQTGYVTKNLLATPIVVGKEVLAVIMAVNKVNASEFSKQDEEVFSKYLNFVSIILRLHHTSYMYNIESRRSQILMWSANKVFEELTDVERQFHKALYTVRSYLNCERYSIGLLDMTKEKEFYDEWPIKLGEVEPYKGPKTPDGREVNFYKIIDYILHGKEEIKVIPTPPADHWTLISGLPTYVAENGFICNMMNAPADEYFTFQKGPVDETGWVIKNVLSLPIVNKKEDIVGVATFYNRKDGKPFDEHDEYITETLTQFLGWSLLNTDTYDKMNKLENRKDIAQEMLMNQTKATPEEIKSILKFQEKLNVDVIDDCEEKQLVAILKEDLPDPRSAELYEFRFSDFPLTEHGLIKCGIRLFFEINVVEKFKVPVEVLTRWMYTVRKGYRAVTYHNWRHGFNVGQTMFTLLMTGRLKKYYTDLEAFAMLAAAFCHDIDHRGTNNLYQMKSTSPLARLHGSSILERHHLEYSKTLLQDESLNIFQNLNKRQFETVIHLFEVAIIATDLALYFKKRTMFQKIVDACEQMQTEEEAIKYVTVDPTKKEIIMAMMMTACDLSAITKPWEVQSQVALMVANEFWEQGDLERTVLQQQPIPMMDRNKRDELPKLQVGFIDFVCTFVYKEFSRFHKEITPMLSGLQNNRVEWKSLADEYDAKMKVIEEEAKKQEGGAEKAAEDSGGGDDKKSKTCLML
3',5'-cyclic-AMP phosphodiesterase 4D, sequence (Q08499 whole entry): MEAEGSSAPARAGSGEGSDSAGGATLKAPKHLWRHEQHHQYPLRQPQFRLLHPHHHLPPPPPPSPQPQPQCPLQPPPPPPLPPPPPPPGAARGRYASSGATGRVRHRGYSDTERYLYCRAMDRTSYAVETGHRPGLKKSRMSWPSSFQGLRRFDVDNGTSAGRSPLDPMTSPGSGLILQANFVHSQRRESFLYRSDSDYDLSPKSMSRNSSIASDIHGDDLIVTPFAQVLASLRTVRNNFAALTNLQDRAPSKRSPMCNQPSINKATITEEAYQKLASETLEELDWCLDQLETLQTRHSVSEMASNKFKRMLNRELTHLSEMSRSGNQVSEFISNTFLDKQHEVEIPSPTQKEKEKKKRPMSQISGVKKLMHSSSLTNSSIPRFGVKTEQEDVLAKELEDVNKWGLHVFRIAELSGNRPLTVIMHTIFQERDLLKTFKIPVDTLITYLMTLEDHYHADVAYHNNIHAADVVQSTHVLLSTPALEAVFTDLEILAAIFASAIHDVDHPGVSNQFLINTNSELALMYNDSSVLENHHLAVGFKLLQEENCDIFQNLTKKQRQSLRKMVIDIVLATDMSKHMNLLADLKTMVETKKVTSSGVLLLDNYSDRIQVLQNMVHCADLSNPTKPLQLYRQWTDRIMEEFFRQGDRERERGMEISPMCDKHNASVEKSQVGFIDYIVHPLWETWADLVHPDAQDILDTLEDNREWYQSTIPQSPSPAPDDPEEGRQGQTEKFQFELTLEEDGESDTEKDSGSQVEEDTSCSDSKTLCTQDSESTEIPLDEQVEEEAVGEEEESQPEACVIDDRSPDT
PDE4C, sequence (Q08493 whole entry): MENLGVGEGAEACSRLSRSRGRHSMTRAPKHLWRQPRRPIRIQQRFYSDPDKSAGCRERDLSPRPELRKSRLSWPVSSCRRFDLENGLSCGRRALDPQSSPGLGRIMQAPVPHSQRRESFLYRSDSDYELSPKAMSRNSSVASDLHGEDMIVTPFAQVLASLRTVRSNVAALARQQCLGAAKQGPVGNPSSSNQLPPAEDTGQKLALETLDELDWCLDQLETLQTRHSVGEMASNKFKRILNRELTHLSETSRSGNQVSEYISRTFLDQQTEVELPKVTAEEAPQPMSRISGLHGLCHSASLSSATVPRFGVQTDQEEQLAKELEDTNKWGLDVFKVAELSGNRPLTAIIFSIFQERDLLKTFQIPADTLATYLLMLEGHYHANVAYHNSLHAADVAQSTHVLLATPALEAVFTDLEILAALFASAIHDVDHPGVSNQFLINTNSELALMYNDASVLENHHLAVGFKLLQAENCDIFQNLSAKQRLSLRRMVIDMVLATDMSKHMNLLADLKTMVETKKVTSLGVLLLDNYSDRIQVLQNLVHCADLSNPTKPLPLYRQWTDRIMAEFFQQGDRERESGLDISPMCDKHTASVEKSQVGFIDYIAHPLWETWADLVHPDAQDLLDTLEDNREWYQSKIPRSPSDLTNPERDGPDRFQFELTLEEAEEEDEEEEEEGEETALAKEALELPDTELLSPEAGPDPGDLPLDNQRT

With C=CCn1cc(-c2nc3ccccc3nc2Cl)c2cc(OC)ccc21 the Activity [1] was “Non-Toxic”, the Cmax [2] was 2850 ng/mL and the remaining at 60 min, 5 µM [3] was 42.2%. The C0 at 24 h [4] was 5060 ng/mL, the Activity [5] was “Non-Toxic” and the Activity [6] was “Active”. For the same compound, the inhibition [7] was 2%, the Activity [8] was “Non-Toxic” and the NOAEL [9] was 30 µM. For the same compound, the inhibition [10] was “Active”, the inhibition [11] was “Active” and the “%AUCextra” value [12] was 6.23%. For the same compound, the inhibition at 1 h, 100 µM [13] was 20 to 30%, the inhibition [14] was 3% and the Activity [15] was “Non-Toxic”. For the same compound, the IC50 [16] was 10.7 µM, the half-life at 5 µM [17] was 52.5 min and the inhibition [18] was 23%. For the same compound, the MRT last at 24 h [19] was 21.6 min, the inhibition [20] was “Active” and the Activity [21] was “Non-Toxic”. The inhibition [22] was 12%, the inhibition [23] was “Active” and the Activity [24] was “Non-Toxic”. It also gave an inhibition [25] of over 75%, an IC50 [26] of 390 nM and a Vd [27] of 4.46 L/kg. For the same compound, the Activity [28] was “Non-Toxic”, the inhibition [29] was “Active” and the Activity [30] was “Toxic”. For the same compound, the Activity [31] was “Toxic”, the Activity [32] was “Non-Toxic” and the Activity [33] was “Active”. For the same compound, the clearance [34] was 143 mL/min/kg and the inhibition [35] was 9%.
